System: Pseudomonas aeruginosa
Assay: Agar well diffusion assessment of emulsified tobramycin availability (effective tobramycin concentration)
Format: cell-based
Conditions: aqueous standard solution, 37° C., 24 hours
Method: The presence and availability of emulsified tobramycin was quantified via the commonly used agar well diffusion method of measuring antibiotic content. In this method, the surface of LB agar plates is inoculated with 500 μL of mid-log growth Pseudomonas aeruginosa in tryptic soy broth. Similar methods are disclosed in Omri et al. Pulmonary Retention of Free and Liposome-Encapsulated Tobramycin after Intratracheal Administration in Uninfected Rats and Rats Infected with Pseudomonas aeruginosa. Antimicrobial Agents and Chemotherapy. 1994, 38: 1090-1095. […] Following this evaluation, the effects of Vaq and Caq were assessed using emulsions with Cfs=2 mg/mL H2O of FSH-PEG, Vaq=0.5-2.5%, and Caq=40-200 mg/mL. […]
For each formulation evaluated, approximately 10 mL of emulsion was prepared in a 15-mL centrifuge tube and allowed to sit at room temperature without agitation for five minutes before sampling. […] Following incubation, circular inhibition zones produced by tobramycin that had diffused into the agar were imaged and measured. Interpolation from the inhibition zones of aqueous standard solutions was then used to determine effective tobramycin concentrations (i.e., the aqueous tobramycin concentration resulting in an identical inhibition area) for each emulsion evaluated. […] Three separate trials were performed for each emulsion formulation evaluated. […]

NC[C@H]1O[C@H](O[C@H]2[C@H](O)[C@@H](O[C@H]3O[C@H](CO)[C@@H](O)[C@H](N)[C@H]3O)[C@H](N)C[C@@H]2N)[C@H](N)C[C@@H]1O [tobramycin]
Aqueous tobramycin concentration producing the smallest measurable inhibition zone: 5 µg/mL
